# Earlier results in patent publication US12137716B2, “Methods of liver disease treatment” (priority 2015, dated 2024).
# Entries after “also recorded” stand apart in the source; their conditions may differ.
# Assays:
# [1] = system: patients with cirrhosis
# [2] = system: mice fed either a MCD or MD diet
# [3] = system: NASH model mice; conditions: NASH mouse model
# [4] = system: patients with severe ALD; conditions: added to corticosteroids
# [5] = system: ethanol-fed rats
# [6] = system: patients with both alcoholic and non-alcoholic liver diseases; conditions: patients with liver disease
# [7] = system: rats and baboons fed ethanol
# [8] = system: ethanol-induced fibrotic mouse model
# [9] = oral administration
# [10] = system: CCl (4) induced cirrhosis; conditions: CCl4 induced
# [11] = system: HCV patients
# [12] = system: HBV patients
compound,measurement,setting,value
N=C(N)NCCC[C@H](N)C(=O)O [Arginine],hepatic microcirculation and tissue oxygenation,[1],improves hepatic microcirculation and tissue oxygenation
"N[C@@H](CCC(=O)N[C@@H](CS)C(=O)NCC(=O)O)C(=O)O [GSH, Glutathione]",GSH in the mitochondria,[2],restored GSH in the mitochondria
same,hepatocellular injury,[2],ameliorated hepatocellular injury
C[N+](C)(C)C[C@H](O)CC(=O)[O-] [L-Carnitine],progression of NASH,[3],prevents progression of NASH
"CC(=O)N[C@@H](CS)C(=O)O [NAC, N-acetylcysteine]","hepatorenal syndrome, infection, short-term mortality",[4],"decrease hepatorenal syndrome, infection, and short-term mortality"
same,hepatic fatty acid accumulation,[5],decrease hepatic fatty acid accumulation
same,inflammatory markers,[5],decrease inflammatory markers
"C[S+](CC[C@H](N)C(=O)O)C[C@H]1O[C@@H](n2cnc3c(N)ncnc32)[C@H](O)[C@@H]1O (stereo partly drawn) [SAMe, S-adenosylmethionine]",hepatic glutathione levels,[6],significant increase; also recorded: increases hepatic GSH
same,GSH in the mitochondria,[2],restored GSH in the mitochondria
same,hepatocellular injury,[2],ameliorated hepatocellular injury
same,hepatic GSH levels,[7]; ethanol-fed,restored hepatic GSH levels
same,mitochondrial lesions and leakage,[7]; ethanol-fed,positive effect on mitochondrial lesions and leakage
same,oxidative stress and hepatic stellate cell activation,[8],attenuate oxidative stress and hepatic stellate cell activation
same,oral bioavailability,[9],low bioavailability
"COc1cc(/C=C/C(=O)CC(=O)/C=C/c2ccc(O)c(OC)c2)ccc1O [curcumin, Curcumin]",cirrhosis,[10],reverses
Phosphatidylcholine [PC],albumin-bound hydroxyproline levels,[11],decreased levels
same,liver injury,[7]; CCl4 and ethanol-induced,attenuated CCI4 and ethanol-induced liver injury
same,procollagen-III-peptide levels,[12],reduced levels
